From PubChem BioAssay AID256 (DTP/NCI, 2004)
“And” between values parts separate entries of the source, which are not always exact repeats. Equal values may be shown once. Toxic doses and inconclusive results are not listed.

Tested on: CD2F1 mice, L1210 leukemia ip, survival T/C
Assay: NCI In Vivo Anticancer Drug Screen. Data for tumor model L1210 Leukemia (intraperitoneal) in CD2F1 (CDF1) mice
Settings: higher = longer survival
How it was run: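 Tumor-bearing mice (transplanted tumor) were split into treated and vehicle control groups, and the measured endpoint of each treated group was divided by that of its vehicle controls.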

[1] = endpoint: mean survival time, dose: 50.0 mg/kg/injection, schedule: Q01DX009 (ip), vehicle: other
[2] = endpoint: mean survival time, dose: 100.0 mg/kg/injection, schedule: Q01DX009 (ip), vehicle: other
[3] = endpoint: mean survival time, dose: 100.0 mg/kg/injection, schedule: Q04DX003 (ip), vehicle: saline with Tween-80
[4] = endpoint: mean survival time, dose: 200.0 mg/kg/injection, schedule: Q04DX003 (ip), vehicle: saline with Tween-80
[5] = endpoint: mean survival time, dose: 400.0 mg/kg/injection, schedule: Q04DX003 (ip), vehicle: saline with Tween-80
[6] = endpoint: mean survival time, dose: 100.0 mg/kg/injection, schedule: Q01DX009 (ip), vehicle: saline with Tween-80
[7] = endpoint: mean survival time, dose: 200.0 mg/kg/injection, schedule: Q01DX009 (ip), vehicle: saline with Tween-80
[8] = endpoint: mean survival time, dose: 400.0 mg/kg/injection, schedule: Q01DX009 (ip), vehicle: saline with Tween-80
[9] = endpoint: mean survival time, dose: 100.0 mg/kg/injection, schedule: Q01DX001 (ip), vehicle: saline with Tween-80
[10] = endpoint: mean survival time, dose: 200.0 mg/kg/injection, schedule: Q01DX001 (ip), vehicle: saline with Tween-80
[11] = endpoint: mean survival time, dose: 200.0 mg/kg/injection, schedule: Q01DX009 (ip), vehicle: other

## C=CCN(N=O)C(=O)OCC
endpoint: mean survival time, dose: 12.5 mg/kg/injection, schedule: Q01DX009 (ip), vehicle: other
  T/C: 107 % of control
endpoint: mean survival time, dose: 25.0 mg/kg/injection, schedule: Q01DX009 (ip), vehicle: other
  T/C: 107 % of control
[1]
  T/C: 104 % of control
[2]
  T/C: 113 % of control

## O=C1c2ccccc2-c2ccc(-c3ccc4c5c(cccc35)C(=O)c3ccccc3-4)c3cccc1c23
[3]
  T/C: 97 % of control
[4]
  T/C: 97 % of control
[5]
  T/C: 86 % of control

## CNc1nc(N)nc2nonc12
endpoint: mean survival time, dose: 12.5 mg/kg/injection, schedule: Q01DX005 (ip), vehicle: other
  T/C: 98 % of control
endpoint: mean survival time, dose: 25.0 mg/kg/injection, schedule: Q01DX005 (ip), vehicle: other
  T/C: 98 % of control
endpoint: mean survival time, dose: 50.0 mg/kg/injection, schedule: Q01DX005 (ip), vehicle: other
  T/C: 95 % of control
endpoint: mean survival time, dose: 100.0 mg/kg/injection, schedule: Q01DX005 (ip), vehicle: other
  T/C: 86 % of control
endpoint: mean survival time, dose: 200.0 mg/kg/injection, schedule: Q01DX005 (ip), vehicle: other
  T/C: 89 % of control

## C=CCc1nc2c(N)ncnc2n1C1OC(CO)C(O)C1O (configuration not stated)
endpoint: median survival time, dose: 12.5 mg/kg/injection, schedule: Q01DX005 (ip), vehicle: water
  T/C: 105 % of control
endpoint: median survival time, dose: 25.0 mg/kg/injection, schedule: Q01DX005 (ip), vehicle: water
  T/C: 104 % of control
endpoint: median survival time, dose: 50.0 mg/kg/injection, schedule: Q01DX005 (ip), vehicle: water
  T/C: 102 % of control
endpoint: median survival time, dose: 100.0 mg/kg/injection, schedule: Q01DX005 (ip), vehicle: water
  T/C: 102 % of control
endpoint: median survival time, dose: 200.0 mg/kg/injection, schedule: Q01DX005 (ip), vehicle: water
  T/C: 104 % of control

## CCc1ncc(C(C)(O)c2ccccc2)n1Cc1ccccc1 (configuration not stated)
[6]
  T/C: 95 % of control
[7]
  T/C: 90 % of control
[8]
  T/C: 94 % of control

## CSc1ccc(SC)nn1
[6]
  T/C: 102 % of control
[7]
  T/C: 96 % of control
[8]
  T/C: 91 % of control

## Cc1cccc(NC2=NCCO2)c1
[9]
  T/C: 104 % of control
[10]
  T/C: 103 % of control

## COC(=O)N/N=C\c1ccc(O)c(OC)c1
[6]
  T/C: 104 % of control
[7]
  T/C: 104 % of control
[8]
  T/C: 97 % of control

## N#Cc1c(N)[nH]c2ccc(Sc3ccccc3)cc12
endpoint: median survival time, dose: 6.25 mg/kg/injection, schedule: Q01DX005 (ip), vehicle: saline with Tween-80
  T/C: 108 % of control
endpoint: median survival time, dose: 12.5 mg/kg/injection, schedule: Q01DX005 (ip), vehicle: saline with Tween-80
  T/C: 101 % of control and 109 % of control
endpoint: median survival time, dose: 25.0 mg/kg/injection, schedule: Q01DX005 (ip), vehicle: saline with Tween-80
  T/C: 102 % of control and 112 % of control
endpoint: median survival time, dose: 43.0 mg/kg/injection, schedule: Q01DX005 (ip), vehicle: saline with Tween-80
  T/C: 112 % of control
endpoint: median survival time, dose: 43.2 mg/kg/injection, schedule: Q01DX005 (ip), vehicle: saline with Tween-80
  T/C: 117 % of control
endpoint: median survival time, dose: 50.0 mg/kg/injection, schedule: Q01DX005 (ip), vehicle: saline with Tween-80
  T/C: 123 % of control and 110 % of control
endpoint: median survival time, dose: 100.0 mg/kg/injection, schedule: Q01DX005 (ip), vehicle: saline with Tween-80
  T/C: 101 % of control
endpoint: median survival time, dose: 120.0 mg/kg/injection, schedule: Q01DX005 (ip), vehicle: saline with Tween-80
  T/C: 153 % of control and 164 % of control

## CCOC(=O)c1c(C)cc(C)cc1C
endpoint: mean survival time, dose: 50.0 mg/kg/injection, schedule: Q01DX001 (ip), vehicle: Klucel (hydroxypropylcellulose) (HPC)
  T/C: 99 % of control
endpoint: mean survival time, dose: 100.0 mg/kg/injection, schedule: Q01DX001 (ip), vehicle: Klucel (hydroxypropylcellulose) (HPC)
  T/C: 102 % of control
endpoint: mean survival time, dose: 200.0 mg/kg/injection, schedule: Q01DX001 (ip), vehicle: Klucel (hydroxypropylcellulose) (HPC)
  T/C: 96 % of control

## Cc1c2ccn(O)cc2c(C)c2c1nc1ccccc12
endpoint: mean survival time, dose: 25.0 mg/kg/injection, schedule: Q04DX003 (ip), vehicle: water
  T/C: 110 % of control
endpoint: mean survival time, dose: 50.0 mg/kg/injection, schedule: Q04DX003 (ip), vehicle: water
  T/C: 103 % of control
endpoint: mean survival time, dose: 100.0 mg/kg/injection, schedule: Q04DX003 (ip), vehicle: water
  T/C: 110 % of control
endpoint: mean survival time, dose: 200.0 mg/kg/injection, schedule: Q04DX003 (ip), vehicle: water
  T/C: 105 % of control
endpoint: mean survival time, dose: 400.0 mg/kg/injection, schedule: Q04DX003 (ip), vehicle: water
  T/C: 106 % of control

## Nc1nc(N)c2c(=O)c(CSc3ccc(C(=O)NC(CCC(=O)O)C(=O)O)cc3)c[nH]c2n1 (configuration not stated)
endpoint: mean survival time, dose: 0.5 mg/kg/injection, schedule: Q01DX005 (ip), vehicle: sodium bicarbonate
  T/C: 92 % of control and 104 % of control
endpoint: mean survival time, dose: 1.0 mg/kg/injection, schedule: Q01DX005 (ip), vehicle: sodium bicarbonate
  T/C: 92 % of control and 106 % of control
endpoint: mean survival time, dose: 2.0 mg/kg/injection, schedule: Q01DX005 (ip), vehicle: sodium bicarbonate
  T/C: 89 % of control and 108 % of control
endpoint: mean survival time, dose: 4.0 mg/kg/injection, schedule: Q01DX005 (ip), vehicle: sodium bicarbonate
  T/C: 95 % of control and 104 % of control
endpoint: mean survival time, dose: 8.0 mg/kg/injection, schedule: Q01DX005 (ip), vehicle: sodium bicarbonate
  T/C: 95 % of control and 108 % of control
endpoint: mean survival time, dose: 16.0 mg/kg/injection, schedule: Q01DX005 (ip), vehicle: sodium bicarbonate
  T/C: 95 % of control and 106 % of control

## CS(=O)(=O)CS(=O)(=O)OCCF
endpoint: median survival time, dose: 3.12 mg/kg/injection, schedule: Q01DX009 (ip), vehicle: saline
  T/C: 112 % of control
endpoint: median survival time, dose: 3.13 mg/kg/injection, schedule: Q01DX009 (ip), vehicle: saline
  T/C: 119 % of control
endpoint: median survival time, dose: 12.5 mg/kg/injection, schedule: Q01DX009 (ip), vehicle: saline
  T/C: 179 % of control and 189 % of control
endpoint: median survival time, dose: 25.0 mg/kg/injection, schedule: Q01DX009 (ip), vehicle: saline
  T/C: 182 % of control and 349 % of control

## CC1OC(C)(C)OC1C(=O)O (configuration not stated)
endpoint: mean survival time, dose: 25.0 mg/kg/injection, schedule: Q01DX009 (ip), vehicle: Klucel (hydroxypropylcellulose) (HPC)
  T/C: 92 % of control
endpoint: mean survival time, dose: 50.0 mg/kg/injection, schedule: Q01DX009 (ip), vehicle: Klucel (hydroxypropylcellulose) (HPC)
  T/C: 86 % of control

## CSC(SC)=C(C#N)C#N
endpoint: mean survival time, dose: 12.5 mg/kg/injection, schedule: Q04DX002 (ip), vehicle: saline
  T/C: 102 % of control
endpoint: mean survival time, dose: 25.0 mg/kg/injection, schedule: Q04DX002 (ip), vehicle: saline
  T/C: 94 % of control
endpoint: mean survival time, dose: 50.0 mg/kg/injection, schedule: Q04DX002 (ip), vehicle: saline
  T/C: 92 % of control

## CC1=NN(c2ccccc2)C(=O)C1N=Nc1ccc([As](=O)(O)O)c(O)c1 (configuration not stated)
[6]
  T/C: 103 % of control
[3]
  T/C: 106 % of control
[7]
  T/C: 97 % of control
[4]
  T/C: 100 % of control
[5]
  T/C: 101 % of control

## CCC(=O)c1cc([N+](=O)[O-])ccc1N
[3]
  T/C: 95 % of control
[4]
  T/C: 95 % of control

## OB(O)Oc1ccc(Br)cc1
[1]
  T/C: 95 % of control
[2]
  T/C: 91 % of control
[11]
  T/C: 102 % of control

## CC(C)OC(CCC#N)c1ccc(Cl)cc1 (configuration not stated)
[2]
  T/C: 98 % of control
endpoint: mean survival time, dose: 100.0 mg/kg/injection, schedule: Q04DX003 (ip), vehicle: other
  T/C: 94 % of control
[11]
  T/C: 107 % of control
endpoint: mean survival time, dose: 200.0 mg/kg/injection, schedule: Q04DX003 (ip), vehicle: other
  T/C: 94 % of control
endpoint: mean survival time, dose: 400.0 mg/kg/injection, schedule: Q01DX009 (ip), vehicle: other
  T/C: 96 % of control
endpoint: mean survival time, dose: 400.0 mg/kg/injection, schedule: Q04DX003 (ip), vehicle: other
  T/C: 93 % of control

## FC(F)(F)Cc1ccccc1
[9]
  T/C: 103 % of control
[10]
  T/C: 108 % of control
endpoint: mean survival time, dose: 400.0 mg/kg/injection, schedule: Q01DX001 (ip), vehicle: saline with Tween-80
  T/C: 105 % of control

## COc1ccc(-n2cnnn2)cc1
[3]
  T/C: 101 % of control
[4]
  T/C: 106 % of control
[5]
  T/C: 112 % of control

## CCC[P+](c1ccccc1)(c1ccccc1)c1ccccc1
endpoint: mean survival time, dose: 3.13 mg/kg/injection, schedule: Q01DX009 (ip), vehicle: saline
  T/C: 106 % of control
endpoint: mean survival time, dose: 6.25 mg/kg/injection, schedule: Q01DX009 (ip), vehicle: saline
  T/C: 113 % of control
endpoint: mean survival time, dose: 12.5 mg/kg/injection, schedule: Q01DX009 (ip), vehicle: saline
  T/C: 120 % of control
endpoint: mean survival time, dose: 25.0 mg/kg/injection, schedule: Q01DX009 (ip), vehicle: saline
  T/C: 117 % of control
endpoint: mean survival time, dose: 75.0 mg/kg/injection, schedule: Q01DX001 (ip), vehicle: other
  T/C: 93 % of control

## O=C(c1ccccc1)c1cccs1
endpoint: mean survival time, dose: 22.0 mg/kg/injection, schedule: Q01DX009 (ip), vehicle: saline with Tween-80
  T/C: 96 % of control
endpoint: mean survival time, dose: 22.0 mg/kg/injection, schedule: Q04DX003 (ip), vehicle: saline with Tween-80
  T/C: 95 % of control
endpoint: mean survival time, dose: 44.0 mg/kg/injection, schedule: Q01DX009 (ip), vehicle: saline with Tween-80
  T/C: 96 % of control
endpoint: mean survival time, dose: 44.0 mg/kg/injection, schedule: Q04DX003 (ip), vehicle: saline with Tween-80
  T/C: 101 % of control
endpoint: mean survival time, dose: 88.0 mg/kg/injection, schedule: Q01DX009 (ip), vehicle: saline with Tween-80
  T/C: 93 % of control
endpoint: mean survival time, dose: 88.0 mg/kg/injection, schedule: Q04DX003 (ip), vehicle: saline with Tween-80
  T/C: 104 % of control
